Reference: ChEMBL document CHEMBL1201862, “PubChem BioAssay data set” (2004)
The source made the active and inactive calls.

What was measured:
Caspase-3 = target: T1, Caspase-3 (Homo sapiens, UniProt P42574); test: SAR Analysis of small molecule inhibitors of Sentrin-specific proteases (SENPs) using a Caspase-3 Selectivity assay. [Related pubchem assays (depositor defined):AID2540, AID2599, AID434973, AID489001]; type: functional
T1 sequence (P42574 whole entry): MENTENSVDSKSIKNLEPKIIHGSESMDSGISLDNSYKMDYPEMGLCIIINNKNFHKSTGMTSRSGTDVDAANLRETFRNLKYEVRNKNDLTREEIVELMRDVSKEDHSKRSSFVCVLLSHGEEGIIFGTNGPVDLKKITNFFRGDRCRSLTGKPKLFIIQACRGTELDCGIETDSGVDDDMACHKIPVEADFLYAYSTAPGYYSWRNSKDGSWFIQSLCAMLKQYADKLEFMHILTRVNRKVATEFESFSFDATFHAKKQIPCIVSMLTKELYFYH

[1] = target: T2, Sentrin-specific protease 7 (Homo sapiens, UniProt Q9BQF6); test: inhibition of human SENP7 cleavage activity – biochemical, luminescence, SAR follow-up (AID 504497); type: functional
T2 sequence (Q9BQF6 whole entry): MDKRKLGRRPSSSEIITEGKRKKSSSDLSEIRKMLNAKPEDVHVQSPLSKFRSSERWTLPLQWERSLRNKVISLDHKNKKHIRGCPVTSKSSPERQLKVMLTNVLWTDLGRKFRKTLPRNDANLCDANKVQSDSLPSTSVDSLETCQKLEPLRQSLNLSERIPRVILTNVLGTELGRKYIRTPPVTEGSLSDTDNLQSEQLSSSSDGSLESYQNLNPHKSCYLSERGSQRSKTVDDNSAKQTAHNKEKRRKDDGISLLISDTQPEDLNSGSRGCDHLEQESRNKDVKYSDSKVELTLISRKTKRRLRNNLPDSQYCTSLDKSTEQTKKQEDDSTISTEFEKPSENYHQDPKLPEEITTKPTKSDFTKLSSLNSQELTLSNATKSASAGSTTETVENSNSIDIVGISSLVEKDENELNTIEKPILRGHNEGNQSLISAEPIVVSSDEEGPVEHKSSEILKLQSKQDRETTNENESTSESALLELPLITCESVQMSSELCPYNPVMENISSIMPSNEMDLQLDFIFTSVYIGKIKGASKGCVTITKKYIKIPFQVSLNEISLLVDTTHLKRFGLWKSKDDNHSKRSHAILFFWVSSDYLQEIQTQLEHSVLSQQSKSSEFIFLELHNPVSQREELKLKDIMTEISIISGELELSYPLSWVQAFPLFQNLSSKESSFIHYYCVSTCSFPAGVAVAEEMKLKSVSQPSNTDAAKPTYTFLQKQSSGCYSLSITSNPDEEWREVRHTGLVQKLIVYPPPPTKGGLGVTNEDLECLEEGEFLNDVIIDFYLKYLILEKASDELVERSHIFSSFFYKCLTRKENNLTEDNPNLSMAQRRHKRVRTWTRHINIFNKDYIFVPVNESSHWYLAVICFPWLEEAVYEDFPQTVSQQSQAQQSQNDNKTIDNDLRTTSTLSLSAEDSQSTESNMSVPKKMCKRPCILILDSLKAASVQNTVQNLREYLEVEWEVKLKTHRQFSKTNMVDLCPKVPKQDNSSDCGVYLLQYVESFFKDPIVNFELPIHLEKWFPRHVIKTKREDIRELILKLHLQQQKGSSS

[2] = target: T3, Sentrin-specific protease 6 (Homo sapiens, UniProt Q9GZR1); test: SAR Analysis of small molecule inhibitors of Sentrin-specific protease 6 (SENP6) using a Luminescent assay. [Related pubchem assays (depositor defined):AID2582, AID2599]; type: functional
T3 sequence (Q9GZR1 whole entry): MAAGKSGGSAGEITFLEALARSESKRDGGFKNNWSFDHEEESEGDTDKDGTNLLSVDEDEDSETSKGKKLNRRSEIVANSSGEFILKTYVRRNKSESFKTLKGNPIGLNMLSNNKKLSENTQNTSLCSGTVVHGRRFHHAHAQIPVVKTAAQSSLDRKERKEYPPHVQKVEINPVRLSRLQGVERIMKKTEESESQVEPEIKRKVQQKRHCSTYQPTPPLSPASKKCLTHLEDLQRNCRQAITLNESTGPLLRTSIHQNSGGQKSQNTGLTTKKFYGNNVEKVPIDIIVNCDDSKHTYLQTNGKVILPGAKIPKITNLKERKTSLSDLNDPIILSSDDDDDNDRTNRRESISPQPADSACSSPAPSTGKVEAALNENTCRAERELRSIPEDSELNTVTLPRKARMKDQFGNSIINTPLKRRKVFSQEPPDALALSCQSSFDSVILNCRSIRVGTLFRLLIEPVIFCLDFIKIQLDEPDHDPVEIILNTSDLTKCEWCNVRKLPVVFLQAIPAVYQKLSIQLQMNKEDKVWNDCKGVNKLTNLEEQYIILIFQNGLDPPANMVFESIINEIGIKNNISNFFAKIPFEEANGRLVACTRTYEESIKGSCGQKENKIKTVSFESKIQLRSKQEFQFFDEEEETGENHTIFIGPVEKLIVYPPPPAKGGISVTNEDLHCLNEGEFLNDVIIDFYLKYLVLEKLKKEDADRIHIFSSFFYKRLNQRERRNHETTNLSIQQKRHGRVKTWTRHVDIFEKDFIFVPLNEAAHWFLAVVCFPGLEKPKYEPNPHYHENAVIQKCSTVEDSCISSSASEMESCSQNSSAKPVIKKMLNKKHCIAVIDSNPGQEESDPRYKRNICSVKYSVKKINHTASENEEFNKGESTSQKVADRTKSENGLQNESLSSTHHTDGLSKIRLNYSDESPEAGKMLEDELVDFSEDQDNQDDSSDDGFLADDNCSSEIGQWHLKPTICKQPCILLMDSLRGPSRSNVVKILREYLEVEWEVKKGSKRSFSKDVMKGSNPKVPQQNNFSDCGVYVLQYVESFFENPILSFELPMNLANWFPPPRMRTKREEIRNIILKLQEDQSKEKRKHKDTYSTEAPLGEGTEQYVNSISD

[3] = target: T4, Sentrin-specific protease 8 (Homo sapiens, UniProt Q96LD8); test: inhibition of human SENP8 cleavage activity – biochemical, luminescence, SAR follow-up (AID 504501); type: functional
T4 sequence (Q96LD8 whole entry): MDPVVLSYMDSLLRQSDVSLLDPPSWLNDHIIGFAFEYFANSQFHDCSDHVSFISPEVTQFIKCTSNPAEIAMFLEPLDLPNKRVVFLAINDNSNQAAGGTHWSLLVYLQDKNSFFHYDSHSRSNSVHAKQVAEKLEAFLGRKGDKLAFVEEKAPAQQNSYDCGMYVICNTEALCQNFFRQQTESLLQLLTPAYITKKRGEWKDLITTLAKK

Candida albicans [4] = test: resistant Candida growth with fluconazole co-treatment – CaCi-8 strain, Alamar Blue, dry powder, set 3, dose response (AID 488905); type: functional, organism-based
Candida albicans [5] = test: Candida growth inhibition combined with fluconazole – CaCi-2 strain, Alamar Blue, dry powder, set 3, dose response (AID 488907); type: functional, organism-based
HEK293 = test: EBV LMP1 TES2 canonical NF-kB signalling blockers – cell-based, HEK293, luciferase, cherry-pick, dose response (AID 588343); type: functional; conditions: Homo sapiens
[6] = target: DNA dC->dU-editing enzyme APOBEC-3G (Homo sapiens, UniProt Q9HC16); test: inhibition of APOBEC3G ssDNA deamination – biochemical, fluorescence, single-stranded DNA substrate, SAR follow-up (AID 602136); type: functional; conditions: read-out: IC50_Mean
[7] = target: DNA dC->dU-editing enzyme APOBEC-3A (Homo sapiens, UniProt P31941); test: SAR analysis of small molecule inhibitors of APOBEC3A DNA Deaminase via a fluorescence-based single-stranded DNA deaminase assay.; type: functional; conditions: read-out: IC50_Mean
Beta Lactamase = Beta Lactamase (Pseudomonas aeruginosa, UniProt Q932Y6); test: BLA reporter interference, concentration series – BLA reporter cells, FRET fluorescence, artefact control for TLR9-MyD88 binding inhibitor project, dose response (AID 588341); type: cell-based;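 note: cell based assay in CHO-K1 cells stably expressing beta-lactamase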
CHO = CHO cell viability loss, potency – luminescence, cytotoxicity control for TLR9-MyD88 binding inhibitor project, dose response (AID 588339); type: functional, cell-based, hamster; conditions: Cricetulus griseus;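 note: CHO cells stably coexpressing TLR9 and MyD88 fusions from primary screen; compound exposure lasted 48 hours before viability readout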
H9c2 = test: cells; type: functional, cell-based; conditions: Rattus norvegicus, H9c2, Myocardium;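 note: confirmatory concentration-response retest of ultra-high-throughput screening hits for modulation of myocardial damage; cell death induced by hydrogen peroxide oxidative stress; compound pretreatment for 60 min then peroxide exposure for 2 h; potency is for protecting the cells against peroxide damage rather than for killing them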
[8] = target: Apoptotic protease-activating factor 1 (Homo sapiens, UniProt O14727); type: functional
[9] = target: T5, Rac GTPase-activating protein 1 (Homo sapiens, UniProt Q9H0H5); test: blockers of MgcRacGAP-driven Rac1 GTP hydrolysis – biochemical, ADP Hunter fluorescence, primary and confirmatory, confirmation (AID 624330); type: functional
T5 sequence (Q9H0H5 whole entry): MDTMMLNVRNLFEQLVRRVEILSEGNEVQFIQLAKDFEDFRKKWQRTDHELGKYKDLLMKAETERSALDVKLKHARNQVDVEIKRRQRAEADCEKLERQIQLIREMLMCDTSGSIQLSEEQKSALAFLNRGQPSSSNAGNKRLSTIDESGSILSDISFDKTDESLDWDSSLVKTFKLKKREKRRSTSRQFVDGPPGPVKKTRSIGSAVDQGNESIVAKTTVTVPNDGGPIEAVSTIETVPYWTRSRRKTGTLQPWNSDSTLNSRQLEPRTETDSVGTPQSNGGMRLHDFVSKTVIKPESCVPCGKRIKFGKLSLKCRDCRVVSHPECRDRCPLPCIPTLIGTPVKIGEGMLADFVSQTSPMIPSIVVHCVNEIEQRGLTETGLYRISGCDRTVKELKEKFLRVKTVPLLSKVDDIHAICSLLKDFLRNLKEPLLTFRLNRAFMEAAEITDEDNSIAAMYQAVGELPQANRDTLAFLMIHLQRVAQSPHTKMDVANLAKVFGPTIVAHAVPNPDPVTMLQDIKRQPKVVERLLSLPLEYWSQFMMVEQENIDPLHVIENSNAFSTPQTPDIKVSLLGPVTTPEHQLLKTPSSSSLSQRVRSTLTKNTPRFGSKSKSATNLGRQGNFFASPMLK

Prothrombin = Prothrombin (Bos taurus, UniProt P00735); test: thrombin protease inhibitors – biochemical, fluorescence polarization, uHTS hits, dose response (AID 602369); type: functional
[10] = target: 26S proteasome non-ATPase regulatory subunit 14 (Homo sapiens, UniProt O00487); test: inhibition of proteasome subunit RPN11 – biochemical, fluorescence polarization, uHTS hits, confirmation (AID 602368); type: functional
Major prion protein = Major prion protein (Homo sapiens, UniProt P04156); type: functional, cell-based
[11] = target: 72 kDa type IV collagenase (Homo sapiens, UniProt P08253); test: Dose Response validation of uHTS RPN11 inhibitor hits using a MMP-2 Fluorescence assay.; type: functional
[12] = target: Beta-2 adrenergic receptor (Homo sapiens, UniProt P07550); test: ADRB2 activation measured by internalization – cell-based, FAP fluorogen, flow cytometry, cherry pick 1, dose response (AID 588763); type: functional
[13] = target: T6, Short transient receptor potential channel 4 (Mus musculus, UniProt Q9QUQ5); test: block of DAMGO-driven TRPC4 calcium entry – cell-based, HEK293 TRPC4/mu-opioid, Fluo-4 calcium, dose response (AID 434942); type: functional;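 note: potency of inhibitors blocking the TRPC4 calcium response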
T6 sequence (Q9QUQ5 whole entry): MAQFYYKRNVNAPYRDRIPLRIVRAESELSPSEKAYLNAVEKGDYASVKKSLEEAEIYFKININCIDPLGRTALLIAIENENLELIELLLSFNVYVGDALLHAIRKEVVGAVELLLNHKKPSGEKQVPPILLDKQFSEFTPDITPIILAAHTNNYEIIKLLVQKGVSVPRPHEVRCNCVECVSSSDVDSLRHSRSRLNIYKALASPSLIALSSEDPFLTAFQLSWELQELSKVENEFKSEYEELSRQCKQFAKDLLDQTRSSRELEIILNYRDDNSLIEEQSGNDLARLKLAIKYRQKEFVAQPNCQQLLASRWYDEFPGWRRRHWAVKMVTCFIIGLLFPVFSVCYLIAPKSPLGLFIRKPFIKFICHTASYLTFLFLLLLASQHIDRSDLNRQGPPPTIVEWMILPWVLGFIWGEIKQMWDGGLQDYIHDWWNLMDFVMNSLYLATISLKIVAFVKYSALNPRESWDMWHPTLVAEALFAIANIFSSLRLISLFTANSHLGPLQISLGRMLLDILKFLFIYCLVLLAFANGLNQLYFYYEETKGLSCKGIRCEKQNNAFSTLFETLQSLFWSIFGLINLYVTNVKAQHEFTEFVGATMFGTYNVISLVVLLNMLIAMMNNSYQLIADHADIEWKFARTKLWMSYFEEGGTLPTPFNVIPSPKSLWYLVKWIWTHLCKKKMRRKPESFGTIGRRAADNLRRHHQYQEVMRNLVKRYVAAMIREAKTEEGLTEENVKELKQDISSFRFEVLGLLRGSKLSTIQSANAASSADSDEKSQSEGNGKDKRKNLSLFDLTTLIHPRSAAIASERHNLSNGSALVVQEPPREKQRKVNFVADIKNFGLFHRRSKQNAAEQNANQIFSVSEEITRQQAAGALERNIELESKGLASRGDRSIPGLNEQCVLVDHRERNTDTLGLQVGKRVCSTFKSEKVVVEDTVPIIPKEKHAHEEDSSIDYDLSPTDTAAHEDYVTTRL

Structure (SMILES): CCc1ccc(-c2nc(/C=C/c3ccccc3)no2)cc1
- IC50 (Caspase-3): 80 µM (active)
- IC50 [1]: 46.5 µM (active)
- IC50 [2]: > 99 µM (inactive)
- IC50 [3]: > 99 µM (inactive)

Structure (SMILES): N#Cc1ccc(C(=O)N2CCN(c3ccccn3)CC2)cc1
- AC50 (Candida albicans [4]): 128 µM (active)
- AC50 (Candida albicans [5]): 2.66 µM (active)

Structure (SMILES): Brc1ccc2ncnc(NCc3ccccc3)c2c1
- AC50 (HEK293): 5.03 µM (active)

Structure (SMILES): Fc1ccc(OCCSc2nc3cccnc3[nH]2)cc1
- IC50 [6]: > 99 µM (inactive)
- IC50 [7]: > 99 µM (inactive)

Structure (SMILES): COc1ccccc1N1N=C(c2cccs2)CC1c1ccccc1 (stereo unspecified)
- IC50 (Beta Lactamase): 3.62 µM (active)
- IC50 (CHO): > 49.7 µM (inactive)

Structure (SMILES): COc1ccc(NCc2cc3cc(OC)ccc3nc2O)cc1
- IC50 (H9c2): > 79 µM (inactive)
- IC50 [8]: 62.5 µM (active)
- IC50 [9]: 89.3 µM (active)

Structure (SMILES): Nc1nnc(SCc2nc(O)c3c(-c4ccccc4)csc3n2)s1
- IC50 (Prothrombin): 30.8 µM (active)
- IC50 [10]: 28.9 µM (active)
- IC50 (cells): > 138 µM (inactive)
- IC50 (Major prion protein): 12.2 µM (inactive)
- IC50 [11]: > 100 µM (inactive)

Structure (SMILES): Oc1ccccc1Nc1nc(NCc2ccco2)c2ccccc2n1
- EC50 [12]: 0.492 µM (active)
- EC50 [13]: 2.11 µM (active)
